Measurements: patent US12258327B2, “5-membered heteroaryl-containing aminopyridine compounds as EGFR inhibitors” (YUHAN CORPORATION, priority 2021, dated 2025)
Where two headings read alike, the source gives them in different places.

What was measured:
EGFR wildtype (WT) = EGFR wildtype (WT) (Homo sapiens, UniProt P00533); test: Biochemical EGFR kinase assay (Lance Ultra TR-FRET), wildtype
Summary of the method: (§1)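 Enzyme reactions lasted 1 hour at room temperature with test compounds between 0.003 and 10 μM, followed by 10 mM EDTA quench.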

EGFR L858R/C797S = EGFR L858R/C797S (Homo sapiens, UniProt P00533, C797S/L858R); test: Biochemical EGFR kinase assay (Lance Ultra TR-FRET), double mutant L858R/C797S
Summary of the method: as §1

EGFR del19/C797S = EGFR del19/C797S (Homo sapiens, UniProt P00533, C797S/DEL746-750); test: Biochemical EGFR kinase assay (Lance Ultra TR-FRET), double mutant del19/C797S
Summary of the method: as §1

EGFR del19/T790M/C797S = EGFR del19/T790M/C797S (Homo sapiens, UniProt P00533, C797S/DEL746-750/T790M); test: Biochemical EGFR kinase assay (Lance Ultra TR-FRET), triple mutant del19/T790M/C797S
Summary of the method: as §1

EGFR L858R/T790M/C797S = EGFR L858R/T790M/C797S (Homo sapiens, UniProt P00533, C797S/L858R/T790M); test: Biochemical EGFR kinase assay (Lance Ultra TR-FRET), triple mutant L858R/T790M/C797S
Summary of the method: as §1

[1] = Km ATP, read-out: IC50 WT (nM) Km ATP
[2] = Km ATP, read-out: IC50 L858R/C797S (nM) Km ATP
[3] = Km ATP, read-out: IC50 del19/C797S (nM) Km ATP
[4] = Km ATP, read-out: IC50 del19/T790M/C797S (nM) Km ATP
[5] = Km ATP, read-out: IC50 L858R/T790M/C797S (nM) Km ATP
[6] = IC50 WT (nM) 100 μM ATP, 100 μM ATP
[7] = IC50 L858R/C797S (nM) 100 μM ATP, 100 μM ATP
[8] = IC50 del19/C797S (nM) 100 μM ATP, 100 μM ATP
[9] = IC50 del19/T790M/C797S (nM) 100 μM ATP, 100 μM ATP
[10] = IC50 L858R/T790M/C797S (nM) 100 μM ATP, 100 μM ATP

Sequence of EGFR L858R/C797S (P00533 25-1210 C797S/L858R): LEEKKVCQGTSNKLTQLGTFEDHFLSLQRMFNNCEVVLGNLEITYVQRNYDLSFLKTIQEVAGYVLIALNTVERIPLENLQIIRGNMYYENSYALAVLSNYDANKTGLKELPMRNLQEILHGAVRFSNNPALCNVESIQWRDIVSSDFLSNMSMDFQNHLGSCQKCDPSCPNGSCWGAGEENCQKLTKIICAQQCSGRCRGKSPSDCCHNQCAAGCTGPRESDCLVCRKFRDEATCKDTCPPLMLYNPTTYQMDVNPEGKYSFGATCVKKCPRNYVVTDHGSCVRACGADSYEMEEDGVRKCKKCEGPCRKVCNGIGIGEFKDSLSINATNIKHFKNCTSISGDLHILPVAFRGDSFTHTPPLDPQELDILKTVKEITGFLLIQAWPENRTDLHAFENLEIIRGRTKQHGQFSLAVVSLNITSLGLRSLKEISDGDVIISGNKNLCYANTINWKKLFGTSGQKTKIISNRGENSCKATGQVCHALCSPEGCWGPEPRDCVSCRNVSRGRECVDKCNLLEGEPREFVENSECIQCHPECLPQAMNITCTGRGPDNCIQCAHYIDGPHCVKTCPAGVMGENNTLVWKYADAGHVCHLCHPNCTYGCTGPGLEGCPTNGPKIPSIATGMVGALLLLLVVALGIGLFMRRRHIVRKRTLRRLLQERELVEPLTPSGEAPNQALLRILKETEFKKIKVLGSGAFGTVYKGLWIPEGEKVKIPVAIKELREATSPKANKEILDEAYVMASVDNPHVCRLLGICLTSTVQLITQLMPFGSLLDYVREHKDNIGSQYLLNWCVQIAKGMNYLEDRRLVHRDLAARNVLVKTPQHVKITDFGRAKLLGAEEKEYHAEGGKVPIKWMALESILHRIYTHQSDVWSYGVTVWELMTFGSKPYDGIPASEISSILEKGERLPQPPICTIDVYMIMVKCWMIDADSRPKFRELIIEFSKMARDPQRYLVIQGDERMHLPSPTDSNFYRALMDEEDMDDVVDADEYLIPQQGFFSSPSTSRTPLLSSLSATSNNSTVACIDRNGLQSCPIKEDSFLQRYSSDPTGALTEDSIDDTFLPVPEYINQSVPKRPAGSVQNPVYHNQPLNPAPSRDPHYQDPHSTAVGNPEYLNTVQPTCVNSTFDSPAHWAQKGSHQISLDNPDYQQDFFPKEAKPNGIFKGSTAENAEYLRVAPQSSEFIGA
Sequence of EGFR del19/T790M/C797S (P00533 with tags, fused parts or gaps DEL746-750/T790M/C797S): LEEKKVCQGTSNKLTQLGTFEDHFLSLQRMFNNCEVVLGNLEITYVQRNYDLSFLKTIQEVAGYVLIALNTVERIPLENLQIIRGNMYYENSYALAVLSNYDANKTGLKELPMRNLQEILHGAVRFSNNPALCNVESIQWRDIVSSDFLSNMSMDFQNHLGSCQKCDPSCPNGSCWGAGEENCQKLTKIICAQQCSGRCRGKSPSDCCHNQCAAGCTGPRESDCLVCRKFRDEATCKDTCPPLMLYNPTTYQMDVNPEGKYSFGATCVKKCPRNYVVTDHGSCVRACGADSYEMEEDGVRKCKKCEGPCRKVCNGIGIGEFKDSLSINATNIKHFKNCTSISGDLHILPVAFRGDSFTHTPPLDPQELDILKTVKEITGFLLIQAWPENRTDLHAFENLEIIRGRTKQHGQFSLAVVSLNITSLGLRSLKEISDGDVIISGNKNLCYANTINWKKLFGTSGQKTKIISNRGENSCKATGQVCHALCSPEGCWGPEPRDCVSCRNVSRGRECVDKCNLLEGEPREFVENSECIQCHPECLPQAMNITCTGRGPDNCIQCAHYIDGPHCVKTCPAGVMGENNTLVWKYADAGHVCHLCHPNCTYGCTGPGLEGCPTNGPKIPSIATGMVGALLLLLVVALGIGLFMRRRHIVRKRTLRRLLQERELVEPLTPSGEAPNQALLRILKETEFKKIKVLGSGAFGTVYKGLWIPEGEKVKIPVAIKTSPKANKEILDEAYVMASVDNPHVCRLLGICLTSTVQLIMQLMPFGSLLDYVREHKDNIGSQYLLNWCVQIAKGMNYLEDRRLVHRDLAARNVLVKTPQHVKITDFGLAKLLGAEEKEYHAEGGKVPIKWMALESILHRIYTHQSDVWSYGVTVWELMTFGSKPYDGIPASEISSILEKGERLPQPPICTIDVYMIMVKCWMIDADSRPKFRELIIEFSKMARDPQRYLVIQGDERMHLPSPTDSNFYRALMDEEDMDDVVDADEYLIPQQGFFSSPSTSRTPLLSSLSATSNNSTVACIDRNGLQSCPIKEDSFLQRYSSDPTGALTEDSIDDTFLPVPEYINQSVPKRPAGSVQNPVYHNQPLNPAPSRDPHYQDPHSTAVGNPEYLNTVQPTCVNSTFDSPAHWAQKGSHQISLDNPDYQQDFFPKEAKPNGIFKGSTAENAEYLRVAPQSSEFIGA
Sequence of EGFR del19/C797S (P00533 with tags, fused parts or gaps DEL746-750/C797S): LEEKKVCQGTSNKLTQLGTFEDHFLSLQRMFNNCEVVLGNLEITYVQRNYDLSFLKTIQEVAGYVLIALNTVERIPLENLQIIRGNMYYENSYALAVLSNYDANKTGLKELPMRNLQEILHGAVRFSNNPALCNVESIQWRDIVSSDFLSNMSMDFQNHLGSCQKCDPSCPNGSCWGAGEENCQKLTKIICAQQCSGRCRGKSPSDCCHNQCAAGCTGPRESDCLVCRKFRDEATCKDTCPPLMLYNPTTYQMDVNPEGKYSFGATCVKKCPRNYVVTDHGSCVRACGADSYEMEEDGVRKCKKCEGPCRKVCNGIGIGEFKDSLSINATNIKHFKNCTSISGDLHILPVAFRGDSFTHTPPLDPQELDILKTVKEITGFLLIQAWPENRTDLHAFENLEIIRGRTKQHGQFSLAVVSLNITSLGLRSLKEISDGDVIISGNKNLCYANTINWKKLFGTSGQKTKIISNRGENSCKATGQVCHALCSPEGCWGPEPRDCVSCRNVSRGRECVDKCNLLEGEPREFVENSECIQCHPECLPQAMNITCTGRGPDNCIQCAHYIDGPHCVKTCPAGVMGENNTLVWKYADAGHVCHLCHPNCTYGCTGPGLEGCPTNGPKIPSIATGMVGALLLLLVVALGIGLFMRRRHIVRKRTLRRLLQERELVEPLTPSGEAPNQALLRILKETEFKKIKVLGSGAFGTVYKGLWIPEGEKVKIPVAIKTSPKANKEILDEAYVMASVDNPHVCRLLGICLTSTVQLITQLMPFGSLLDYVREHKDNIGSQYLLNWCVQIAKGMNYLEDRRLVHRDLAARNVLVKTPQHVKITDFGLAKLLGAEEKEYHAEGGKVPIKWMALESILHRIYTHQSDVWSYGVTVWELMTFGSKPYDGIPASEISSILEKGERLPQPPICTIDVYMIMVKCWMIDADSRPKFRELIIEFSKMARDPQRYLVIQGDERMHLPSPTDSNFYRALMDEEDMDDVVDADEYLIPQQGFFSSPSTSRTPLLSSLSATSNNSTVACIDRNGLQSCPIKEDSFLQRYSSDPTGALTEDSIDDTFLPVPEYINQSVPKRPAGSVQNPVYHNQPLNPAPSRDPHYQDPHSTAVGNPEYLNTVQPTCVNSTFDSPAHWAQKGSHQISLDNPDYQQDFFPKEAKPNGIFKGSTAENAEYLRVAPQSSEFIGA
Sequence of EGFR L858R/T790M/C797S (P00533 25-1210 T790M/C797S/L858R): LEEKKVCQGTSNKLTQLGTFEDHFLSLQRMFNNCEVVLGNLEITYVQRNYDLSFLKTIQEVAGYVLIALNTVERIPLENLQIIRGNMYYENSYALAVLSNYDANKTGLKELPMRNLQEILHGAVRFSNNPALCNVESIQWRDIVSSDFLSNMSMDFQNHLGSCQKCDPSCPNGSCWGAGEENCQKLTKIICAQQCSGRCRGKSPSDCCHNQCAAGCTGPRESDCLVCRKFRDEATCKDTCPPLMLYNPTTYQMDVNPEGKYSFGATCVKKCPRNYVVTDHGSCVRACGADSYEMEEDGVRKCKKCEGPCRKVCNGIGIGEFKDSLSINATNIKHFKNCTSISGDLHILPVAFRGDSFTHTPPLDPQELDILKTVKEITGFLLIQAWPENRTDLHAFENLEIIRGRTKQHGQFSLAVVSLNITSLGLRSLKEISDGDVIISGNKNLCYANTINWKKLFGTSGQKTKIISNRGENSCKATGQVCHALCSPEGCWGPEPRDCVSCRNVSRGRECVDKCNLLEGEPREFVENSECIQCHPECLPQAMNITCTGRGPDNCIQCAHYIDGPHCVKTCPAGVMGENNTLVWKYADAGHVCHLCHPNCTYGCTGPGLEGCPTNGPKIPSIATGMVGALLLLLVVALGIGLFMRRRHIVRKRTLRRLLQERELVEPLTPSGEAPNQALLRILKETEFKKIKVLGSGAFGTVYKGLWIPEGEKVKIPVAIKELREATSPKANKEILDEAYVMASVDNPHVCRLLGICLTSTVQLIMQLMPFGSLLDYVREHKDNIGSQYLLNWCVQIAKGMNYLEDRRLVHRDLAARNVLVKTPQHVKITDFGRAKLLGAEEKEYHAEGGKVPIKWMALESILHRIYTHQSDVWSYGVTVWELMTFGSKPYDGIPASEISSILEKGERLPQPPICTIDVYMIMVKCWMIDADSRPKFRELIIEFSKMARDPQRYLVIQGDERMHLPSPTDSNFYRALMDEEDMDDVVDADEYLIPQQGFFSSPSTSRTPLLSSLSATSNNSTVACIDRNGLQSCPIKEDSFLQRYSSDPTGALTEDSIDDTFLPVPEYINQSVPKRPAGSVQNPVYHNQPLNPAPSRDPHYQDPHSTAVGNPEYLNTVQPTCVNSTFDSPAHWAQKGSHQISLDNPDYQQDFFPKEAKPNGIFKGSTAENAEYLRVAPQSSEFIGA

IC50 (EGFR wildtype (WT); [1]) [nM]	IC50 (EGFR L858R/C797S; [2]) [nM]	IC50 (EGFR del19/C797S; [3]) [nM]	IC50 (EGFR del19/T790M/C797S; [4]) [nM]	IC50 (EGFR L858R/T790M/C797S; [5]) [nM]	IC50 (EGFR wildtype (WT); [6]) [nM]	IC50 (EGFR L858R/C797S; [7]) [nM]	IC50 (EGFR del19/C797S; [8]) [nM]	IC50 (EGFR del19/T790M/C797S; [9]) [nM]	IC50 (EGFR L858R/T790M/C797S; [10]) [nM]	IC50 (EGFR wildtype (WT); Km ATP, read-out: IC50 WT, Km ATP) [nM]	IC50 (EGFR L858R/C797S; Km ATP, read-out: IC50 L858R/C797S, Km ATP) [nM]	IC50 (EGFR del19/C797S; Km ATP, read-out: IC50 del19/C797S, Km ATP) [nM]	IC50 (EGFR del19/T790M/C797S; Km ATP, read-out: IC50 del19/T790M/C797S, Km ATP) [nM]	IC50 (EGFR L858R/T790M/C797S; Km ATP, read-out: IC50 L858R/T790M/C797S, Km ATP) [nM]	IC50 (EGFR wildtype (WT); read-out: IC50 WT (nM) 100 μM ATP, 100 μM ATP) [nM]	IC50 (EGFR L858R/C797S; read-out: IC50 L858R/C797S (nM) 100 μM ATP, 100 μM ATP) [nM]	IC50 (EGFR del19/C797S; read-out: IC50 del19/C797S (nM) 100 μM ATP, 100 μM ATP) [nM]	IC50 (EGFR del19/T790M/C797S; read-out: IC50 del19/T790M/C797S (nM) 100 μM ATP, 100 μM ATP) [nM]	IC50 (EGFR L858R/T790M/C797S; read-out: IC50 L858R/T790M/C797S (nM) 100 μM ATP, 100 μM ATP) [nM]	SMILES
294	38.5	72	2.1	2.3	–	–	–	–	–	–	–	–	–	–	–	–	–	–	–	C[C@H](CCF)Nc1cc(Nc2ccnc(-c3cnn(S(=O)(=O)C4CC4)c3)n2)ncc1-c1ccn(C(F)F)n1 [Example 212, (R)—N^2-(2-(1-(Cyclopropylsulfonyl)-1H-pyrazol-4-yl)pyrimidin-4-yl)-5-(1-(difluoromethyl)-1H-pyrazol-3-yl)-N^4-(4-fluorobutan-2-yl)pyridine-2,4-diamine]
–	–	–	–	–	> 10000	8.7	0.8	1	2.3	–	–	–	–	–	–	–	–	–	–	CC(C)(O)c1nc(-c2cnc(Nc3ccnc(-c4cnn(S(=O)(=O)C5CC5)c4)n3)cc2N[C@H]2CCC[C@H](O)C2)cs1 [Example 91, (1S,3S)-3-((2-((2-(1-(Cyclopropylsulfonyl)-1H-pyrazol-4-yl)pyrimidin-4-yl)amino)-5-(2-(2-hydroxypropan-2-yl)thiazol-4-yl)pyridin-4-yl)amino) cyclohexan-1-ol]
3.6	0.9	0.5	0.4	0.2	3140	4.2	1.3	0.5	0.4	–	–	–	–	–	–	–	–	–	–	Cn1ccc(-c2cnc(Nc3ccnc(-c4cnn(S(=O)(=O)C5CC5)c4)n3)cc2N[C@H]2CCC[C@H](CO)C2)n1 [Example 233, ((1S,3S)-3-((2-((2-(1-(Cyclopropylsulfonyl)-1H-pyrazol-4-yl)pyrimidin-4-yl)amino)-5-(1-methyl-1H-pyrazol-3-yl)pyridin-4-yl)amino)cyclohexyl)methanol]
57.2	2	23.7	1.2	0.5	–	–	–	–	–	–	–	–	–	–	–	–	–	–	–	CS(=O)(=O)n1ccc(-c2nccc(Nc3cc(N[C@H]4CC[C@@](C)(O)CC4)c(-c4ccn(C(F)F)n4)cn3)n2)c1 [Example 108, (1s,4s)-4-((5-(1-(Difluoromethyl)-1H-pyrazol-3-yl)-2-((2-(1-(methylsulfonyl)-1H-pyrrol-3-yl)pyrimidin-4-yl)amino)pyridin-4-yl)amino)-1-methylcyclohexan-1-ol]
8.3	1	2	1	0.5	–	–	–	–	–	–	–	–	–	–	–	–	–	–	–	Cn1nc(-c2cnc(Nc3ccnc(-c4cnn(S(=O)(=O)C5CC5)c4)n3)cc2NN2CCC(O)CC2)cc1C(F)(F)F [Example 160, 1-((2-((2-(1-(Cyclopropylsulfonyl)-1H-pyrazol-4-yl)pyrimidin-4-yl)amino)-5-(1-methyl-5-(trifluoromethyl)-1H-pyrazol-3-yl)pyridin-4-yl)amino)piperidin-4-ol]
–	–	–	–	–	–	–	–	–	–	55.6	9	7.9	0.4	0.8	–	–	–	–	–	O=S(=O)(C1CC1)n1cc(-c2cc(Nc3ncc(-c4ccn(C(F)F)n4)c(N[C@H]4CC[C@@H](CO)CC4)n3)ccn2)cn1 [Example 364, ((1s,4s)-4-((2-((2-(1-(Cyclopropylsulfonyl)-1H-pyrazol-4-yl)pyridin-4-yl)amino)-5-(1-(difluoromethyl)-1H-pyrazol-3-yl)pyrimidin-4-yl)amino)cyclohexyl)methanol]
32.9	6.5	5.2	0.4	0.2	> 10000	57.6	5.4	0.3	0.9	–	–	–	–	–	–	–	–	–	–	O=S(=O)(C1CC1)n1cc(-c2nccc(Nc3cc(NC[C@H]4C[C@@H](O)C4)c(-c4ccn(C(F)F)n4)cn3)n2)cn1 [Example 35, (1s,3s)-3-(((2-((2-(1-(Cyclopropylsulfonyl)-1H-pyrazol-4-yl)pyrimidin-4-yl)amino)-5-(1-(difluoromethyl)-1H-pyrazol-3-yl)pyridin-4-yl)amino)methyl)cyclobutan-1-ol]
9.5	–	–	0.9	0.4	> 10000	36.1	4	0.9	0.8	–	–	–	–	–	–	–	–	–	–	CN(CC(F)F)C(=O)[C@H]1CC[C@@H](Nc2cc(Nc3ccnc(-c4cnn(S(=O)(=O)C5CC5)c4)n3)ncc2-c2ccn(C(F)F)n2)CC1 [Example 204, (1s,4s)-4-((2-((2-(1-(Cyclopropylsulfonyl)-1H-pyrazol-4-yl)pyrimidin-4-yl)amino)-5-(1-(difluoromethyl)-1H-pyrazol-3-yl)pyridin-4-yl)amino)-N-(2,2-difluoroethyl)-N-methylcyclohexane-1-carboxamide]
–	–	–	1.3	1.3	> 10000	> 10000	353	2.4	6.6	–	–	–	–	–	–	–	–	–	–	COc1ncc(-c2nccc(Nc3cc(N[C@H]4CC[C@@](C)(O)CC4)c(-c4ccn(C(F)F)n4)cn3)n2)cn1 [Example 312, (1s,4s)-4-((5-(1-(Difluoromethyl)-1H-pyrazol-3-yl)-2-((2′-methoxy-[2,5′-bipyrimidin]-4-yl)amino)pyridin-4-yl)amino)-1-methylcyclohexan-1-ol]
53	19.6	16.9	0.7	0.7	> 10000	355	25.8	1	1.8	–	–	–	–	–	–	–	–	–	–	Cn1ccc(-c2cnc(Nc3ccnc(-c4cnn(S(=O)(=O)C5CC5)c4)n3)cc2NCC2(C)CCC(O)CC2)n1 (stereo not drawn) [Example 127, 4-(((2-((2-(1-(Cyclopropylsulfonyl)-1H-pyrazol-4-yl)pyrimidin-4-yl)amino)-5-(1-methyl-1H-pyrazol-3-yl)pyridin-4-yl)amino)methyl)-4-methylcyclohexan-1-ol]
110	19.5	9.3	4.8	2	> 10000	378	11.5	8	6.5	–	–	–	–	–	–	–	–	–	–	Cn1nc(-c2cnc(Nc3nc(-c4cnn(S(=O)(=O)C5CC5)c4)ncc3F)cc2N[C@H]2CC[C@@](C)(O)CC2)cc1C(F)(F)F [Example 328, (1s,4s)-4-((2-((2-(1-(Cyclopropylsulfonyl)-1H-pyrazol-4-yl)-5-fluoropyrimidin-4-yl)amino)-5-(1-methyl-5-(trifluoromethyl)-1H-pyrazol-3-yl)pyridin-4-yl)amino)-1-methylcyclohexan-1-ol]
264	7.4	168	3.1	2.1	–	–	–	–	–	–	–	–	–	–	–	–	–	–	–	O=S(=O)(C1CC1)n1cc(-c2nccc(Nc3cc(NC4CCC(F)(F)C4)c(-c4ccn(C(F)F)n4)cn3)n2)cn1 (stereo not drawn) [Example 179, N^2-(2-(1-(Cyclopropylsulfonyl)-1H-pyrazol-4-yl)pyrimidin-4-yl)-N^4-(3,3-difluorocyclopentyl)-5-(1-(difluoromethyl)-1H-pyrazol-3-yl)pyridine-2,4-diamine]
5.2	0.8	0.5	0.3	0.1	4690	2.3	1.1	0.4	0.5	–	–	–	–	–	–	–	–	–	–	O=S(=O)(C1CC1)n1cc(-c2nccc(Nc3cc(NCC4CCC(NCCF)CC4)c(-c4ccn(C(F)F)n4)cn3)n2)cn1 (stereo not drawn) [Example 132, N^2-(2-(1-(Cyclopropylsulfonyl)-1H-pyrazol-4-yl)pyrimidin-4-yl)-5-(1-(difluoromethyl)-1H-pyrazol-3-yl)-N^4-((4-((2-fluoroethyl)amino)cyclohexyl)methyl)pyridine-2,4-diamine]
–	–	–	–	–	> 10000	7.1	13.2	0.6	0.8	–	–	–	–	–	–	–	–	–	–	CN[C@H]1CC[C@@H](Nc2cc(Nc3ccnc(-c4cnn(S(=O)(=O)C5CC5)c4)n3)ncc2-c2csc(C(C)(C)O)n2)CC1 [Example 56, 2-(4-(6-((2-(1-(Cyclopropylsulfonyl)-1H-pyrazol-4-yl)pyrimidin-4-yl)amino)-4-(((1s,4s)-4-(methylamino)cyclohexyl)amino)pyridin-3-yl)thiazol-2-yl)propan-2-ol]
–	–	–	–	–	–	–	–	–	–	–	–	–	–	–	> 10000	58.1	54.1	3.4	4	Cn1ccc(-c2cnc(Nc3ccnc(-c4cnn(S(=O)(=O)C5CC5)c4)n3)cc2N[C@H]2CC[C@](O)(C(F)(F)F)CC2)n1 [Example 94, (1s,4s)-4-((2-((2-(1-(Cyclopropylsulfonyl)-1H-pyrazol-4-yl)pyrimidin-4-yl)amino)-5-(1-methyl-1H-pyrazol-3-yl)pyridin-4-yl)amino)-1-(trifluoromethyl)cyclohexan-1-ol]
